# Results as given in ChEMBL document CHEMBL1201862, “PubChem BioAssay data set” (2004).
# Activity calls are given as the source filed them.
# Key:
# Cytochrome P450 1A2 = biological target: T1, Cytochrome P450 1A2 (Homo sapiens, UniProt P05177);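 also: PubChem cytochrome P450 panel assay, CYP1A2 panel member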
# T1 sequence (P05177 whole entry): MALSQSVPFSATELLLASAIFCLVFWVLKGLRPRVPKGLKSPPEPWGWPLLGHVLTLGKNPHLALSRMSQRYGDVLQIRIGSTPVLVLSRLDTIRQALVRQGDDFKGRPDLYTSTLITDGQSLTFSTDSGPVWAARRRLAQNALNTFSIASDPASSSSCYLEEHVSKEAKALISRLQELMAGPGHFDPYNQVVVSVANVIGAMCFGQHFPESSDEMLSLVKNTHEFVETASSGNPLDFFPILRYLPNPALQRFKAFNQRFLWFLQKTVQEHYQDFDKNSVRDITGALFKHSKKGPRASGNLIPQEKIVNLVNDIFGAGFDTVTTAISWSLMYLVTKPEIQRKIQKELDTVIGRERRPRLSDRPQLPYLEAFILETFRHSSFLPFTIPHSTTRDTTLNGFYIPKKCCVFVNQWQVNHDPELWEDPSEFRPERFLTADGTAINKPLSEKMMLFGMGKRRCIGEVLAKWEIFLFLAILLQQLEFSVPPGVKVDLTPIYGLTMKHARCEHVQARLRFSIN
# CAAX prenyl protease 1 = biological target: T2, CAAX prenyl protease 1 (Saccharomyces cerevisiae S288c, UniProt P47154); test: Ste24 protease inhibitors, dose response, biochemical, S. cerevisiae, plate reader, cherry-pick (AID 488815)
# T2 sequence (P47154 whole entry): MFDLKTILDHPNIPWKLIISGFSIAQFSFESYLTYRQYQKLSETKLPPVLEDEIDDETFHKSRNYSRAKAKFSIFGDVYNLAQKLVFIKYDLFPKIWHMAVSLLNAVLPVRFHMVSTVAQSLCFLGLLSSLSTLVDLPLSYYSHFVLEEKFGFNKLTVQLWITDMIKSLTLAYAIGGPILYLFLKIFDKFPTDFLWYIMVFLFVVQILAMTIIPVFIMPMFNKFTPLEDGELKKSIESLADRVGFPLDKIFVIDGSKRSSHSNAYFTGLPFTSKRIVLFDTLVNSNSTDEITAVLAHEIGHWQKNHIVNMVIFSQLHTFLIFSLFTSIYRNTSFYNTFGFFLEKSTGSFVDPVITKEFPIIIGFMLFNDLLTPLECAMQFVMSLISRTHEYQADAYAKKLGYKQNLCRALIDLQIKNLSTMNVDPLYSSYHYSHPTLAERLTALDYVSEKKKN
# Cytochrome P450 3A4 = Cytochrome P450 3A4 (Homo sapiens, UniProt P08684);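 also: CYP3A4 tested as one member of a cytochrome P450 panel screen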
# CAAX prenyl protease 2 = biological target: T3, CAAX prenyl protease 2 (Homo sapiens, UniProt Q9Y256); test: human Rce1 protease inhibitors, dose response, biochemical, yeast membranes, quenched-peptide fluorescence, cherry-pick (AID 588849)
# T3 sequence (Q9Y256 whole entry): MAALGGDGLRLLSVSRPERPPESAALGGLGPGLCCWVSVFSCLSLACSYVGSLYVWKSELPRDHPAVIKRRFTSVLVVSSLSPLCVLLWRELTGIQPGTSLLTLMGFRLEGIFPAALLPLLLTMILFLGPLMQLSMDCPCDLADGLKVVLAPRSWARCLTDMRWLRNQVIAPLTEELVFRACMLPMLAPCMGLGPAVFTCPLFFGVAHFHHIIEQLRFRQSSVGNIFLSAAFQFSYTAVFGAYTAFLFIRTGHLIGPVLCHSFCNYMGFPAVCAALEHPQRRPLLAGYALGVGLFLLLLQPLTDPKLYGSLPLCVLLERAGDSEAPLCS
# Trypsin = Trypsin (Sus scrofa, UniProt P00761); test: porcine trypsin inhibitors, dose response, selectivity assay for Rce1 protease inhibitor project, biochemical, quenched peptide fluorescence, cherry-pick (AID 488789)
# [1] = biological target: Glyceraldehyde-3-phosphate dehydrogenase (Homo sapiens, UniProt P04406)
# [2] = biological target: T4, Alkaline phosphatase, tissue-nonspecific isozyme (Homo sapiens, UniProt P05186); test: human TNAP enzyme inhibitors, SAR follow-up, biochemical, luminescent, dose response (AID 1056)
# T4 sequence (P05186 whole entry): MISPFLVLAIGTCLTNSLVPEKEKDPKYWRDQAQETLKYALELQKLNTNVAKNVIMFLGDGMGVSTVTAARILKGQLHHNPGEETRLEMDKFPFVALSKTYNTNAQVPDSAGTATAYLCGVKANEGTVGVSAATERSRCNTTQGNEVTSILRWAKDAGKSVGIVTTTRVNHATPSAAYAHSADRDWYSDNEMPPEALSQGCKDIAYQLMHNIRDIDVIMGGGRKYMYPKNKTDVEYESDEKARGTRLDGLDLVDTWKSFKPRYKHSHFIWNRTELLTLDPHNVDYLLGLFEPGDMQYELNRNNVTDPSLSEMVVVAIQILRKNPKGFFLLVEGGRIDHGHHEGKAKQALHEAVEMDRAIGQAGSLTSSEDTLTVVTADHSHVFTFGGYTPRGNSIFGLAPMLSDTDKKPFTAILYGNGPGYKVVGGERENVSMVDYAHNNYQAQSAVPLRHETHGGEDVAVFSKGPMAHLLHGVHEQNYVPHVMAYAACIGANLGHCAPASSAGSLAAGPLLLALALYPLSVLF
# [3] = biological target: Alkaline phosphatase, placental type (Homo sapiens, UniProt P05187); test: PLAP enzyme inhibitors, confirmation, biochemical, luminescence (AID 1512); type: functional
# Nonstructural protein 1 = Nonstructural protein 1 (Influenza A virus, UniProt Q194T2); type: functional, Influenza A virus (A/California/07/2009(H1N1))
# [4] = NIH-3T3 fibroblast cytotoxicity, dose response, cytotoxicity control, cell-based, fluorescence, Alamar Blue, secondary assay (AID 2327); type: functional;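 also: NIH-3T3 mouse fibroblasts cultured with fluconazole at 8 µg/mL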
# Beta-galactosidase = Beta-galactosidase (Escherichia coli, UniProt Q8VNN2); test: beta-galactosidase enzyme inhibitors and activators, dose response, artefact control for CCR6 antagonist project, biochemical, E. coli enzyme, set 3 (AID 504712); type: functional
# Chain of Beta-galactosidase (Q8VNN2 whole entry): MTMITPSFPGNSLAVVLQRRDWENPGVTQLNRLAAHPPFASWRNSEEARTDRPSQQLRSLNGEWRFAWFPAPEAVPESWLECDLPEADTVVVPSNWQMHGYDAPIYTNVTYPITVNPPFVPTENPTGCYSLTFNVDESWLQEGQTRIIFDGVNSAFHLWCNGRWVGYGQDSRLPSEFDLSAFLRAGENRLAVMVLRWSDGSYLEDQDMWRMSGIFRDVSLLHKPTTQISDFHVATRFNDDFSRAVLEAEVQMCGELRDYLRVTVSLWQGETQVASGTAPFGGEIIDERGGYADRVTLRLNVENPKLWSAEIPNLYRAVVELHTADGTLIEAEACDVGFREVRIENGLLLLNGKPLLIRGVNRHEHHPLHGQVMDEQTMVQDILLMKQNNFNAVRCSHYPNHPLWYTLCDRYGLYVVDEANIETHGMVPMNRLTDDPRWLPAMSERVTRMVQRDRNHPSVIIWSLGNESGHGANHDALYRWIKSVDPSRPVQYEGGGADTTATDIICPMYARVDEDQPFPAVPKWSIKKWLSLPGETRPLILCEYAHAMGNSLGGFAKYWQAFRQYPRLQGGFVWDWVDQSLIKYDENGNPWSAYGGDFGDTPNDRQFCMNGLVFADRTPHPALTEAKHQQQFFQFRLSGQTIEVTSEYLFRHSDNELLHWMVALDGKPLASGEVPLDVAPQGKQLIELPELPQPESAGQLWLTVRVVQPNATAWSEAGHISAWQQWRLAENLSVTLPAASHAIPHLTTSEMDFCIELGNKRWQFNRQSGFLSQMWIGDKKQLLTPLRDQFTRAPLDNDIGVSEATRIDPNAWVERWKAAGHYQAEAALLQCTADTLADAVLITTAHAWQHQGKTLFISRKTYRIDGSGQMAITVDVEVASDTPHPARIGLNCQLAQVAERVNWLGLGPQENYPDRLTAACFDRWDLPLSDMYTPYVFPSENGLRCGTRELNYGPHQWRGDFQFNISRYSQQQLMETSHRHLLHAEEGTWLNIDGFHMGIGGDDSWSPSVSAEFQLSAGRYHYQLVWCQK
# Chain of Alkaline phosphatase, placental type (P05187 whole entry): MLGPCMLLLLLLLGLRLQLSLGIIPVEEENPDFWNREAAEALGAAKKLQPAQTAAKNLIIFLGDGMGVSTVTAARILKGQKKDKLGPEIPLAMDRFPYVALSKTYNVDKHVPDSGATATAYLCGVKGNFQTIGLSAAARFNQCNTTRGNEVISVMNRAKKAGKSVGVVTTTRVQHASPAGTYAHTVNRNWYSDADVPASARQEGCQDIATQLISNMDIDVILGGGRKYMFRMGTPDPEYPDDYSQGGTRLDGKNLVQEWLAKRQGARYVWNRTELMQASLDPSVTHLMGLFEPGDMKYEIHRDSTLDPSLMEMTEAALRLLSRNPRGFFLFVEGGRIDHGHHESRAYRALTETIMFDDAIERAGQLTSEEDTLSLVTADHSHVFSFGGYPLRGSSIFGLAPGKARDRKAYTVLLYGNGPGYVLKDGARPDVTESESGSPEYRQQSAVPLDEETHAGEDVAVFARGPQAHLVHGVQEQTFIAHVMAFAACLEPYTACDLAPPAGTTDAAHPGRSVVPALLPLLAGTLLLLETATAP
# Chain of Glyceraldehyde-3-phosphate dehydrogenase (P04406 whole entry): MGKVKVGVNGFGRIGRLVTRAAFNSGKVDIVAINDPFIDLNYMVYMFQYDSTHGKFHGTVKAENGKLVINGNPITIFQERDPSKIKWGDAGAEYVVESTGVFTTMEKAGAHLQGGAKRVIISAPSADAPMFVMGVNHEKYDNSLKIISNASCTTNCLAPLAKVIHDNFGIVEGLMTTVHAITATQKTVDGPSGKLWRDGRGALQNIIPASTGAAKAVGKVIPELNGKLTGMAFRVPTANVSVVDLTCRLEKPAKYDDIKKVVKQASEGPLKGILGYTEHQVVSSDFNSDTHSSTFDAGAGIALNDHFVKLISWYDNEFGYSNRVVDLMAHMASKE
# Chain of Cytochrome P450 3A4 (P08684 whole entry): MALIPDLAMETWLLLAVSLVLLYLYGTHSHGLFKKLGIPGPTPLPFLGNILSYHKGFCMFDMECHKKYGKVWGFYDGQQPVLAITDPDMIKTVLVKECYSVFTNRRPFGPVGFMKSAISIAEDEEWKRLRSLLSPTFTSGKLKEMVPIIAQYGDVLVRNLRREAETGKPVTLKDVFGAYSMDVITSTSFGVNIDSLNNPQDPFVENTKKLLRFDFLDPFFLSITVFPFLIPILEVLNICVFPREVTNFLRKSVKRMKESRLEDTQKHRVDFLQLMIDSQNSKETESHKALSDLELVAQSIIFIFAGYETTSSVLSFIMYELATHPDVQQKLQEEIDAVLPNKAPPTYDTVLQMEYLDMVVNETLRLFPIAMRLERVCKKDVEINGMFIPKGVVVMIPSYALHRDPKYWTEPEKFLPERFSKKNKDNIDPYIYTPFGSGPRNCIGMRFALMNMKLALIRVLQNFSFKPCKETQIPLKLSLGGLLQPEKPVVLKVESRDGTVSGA
# Chain of Nonstructural protein 1 (Q194T2 whole entry): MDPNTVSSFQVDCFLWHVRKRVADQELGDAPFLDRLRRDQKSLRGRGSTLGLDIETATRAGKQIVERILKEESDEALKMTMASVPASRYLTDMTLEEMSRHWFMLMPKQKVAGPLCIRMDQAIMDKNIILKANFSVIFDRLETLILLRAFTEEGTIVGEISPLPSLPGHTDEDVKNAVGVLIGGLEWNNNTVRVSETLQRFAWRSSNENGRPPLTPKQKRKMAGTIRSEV
# Chain of Trypsin (P00761 whole entry): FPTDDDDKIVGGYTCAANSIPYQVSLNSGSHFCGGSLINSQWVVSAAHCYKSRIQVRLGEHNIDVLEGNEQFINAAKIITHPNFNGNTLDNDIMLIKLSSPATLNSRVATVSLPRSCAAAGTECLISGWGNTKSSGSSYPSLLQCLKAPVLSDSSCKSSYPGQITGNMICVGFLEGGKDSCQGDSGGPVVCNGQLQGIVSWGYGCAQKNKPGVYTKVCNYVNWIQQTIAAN
structure (smiles),measurement,setting,value
CCOc1c2ccc(C(=O)NCc3ccco3)cc2nn1CCOC,AC50,Cytochrome P450 1A2,15.8 µM (inconclusive)
same,AC50,CAAX prenyl protease 1,11.5 µM (active)
same,AC50,Cytochrome P450 3A4,22.4 µM (inconclusive)
same,AC50,CAAX prenyl protease 2,12.3 µM (active)
same,AC50,Trypsin,16.5 µM (active)
O=C(c1cc(-c2cc(F)c(Cl)cc2Cl)[nH]n1)N1CCCCC1,IC50,[1],> 100 µM (not active)
same,IC50,[2],0.322 µM (active)
same,IC50,[3],> 100 µM (inactive)
Cc1c(N=NC2=C(O)CC(C)(C)CC2=O)c(=O)n(-c2ccccc2)n1C,IC50,Nonstructural protein 1,3.63 µM (active)
same,EC50,[4],> 160 µM (inactive)
same,IC50,Beta-galactosidase,> 66.6 µM (inactive)
COC(=O)c1ccccc1NC(=O)CSc1nnc(-c2ccccc2Cl)[nH]1,IC50,[1],> 100 µM (not active)
same,IC50,[2],4.88 µM (active)
same,IC50,[3],> 100 µM (inactive)
